Measurements: paper PMC6001238, “Iterative Chemical Engineering of Vancomycin Leads to Novel Vancomycin Analogs With a High in Vitro Therapeutic Index” (Frontiers in Microbiology, 2018)
≈ marks a conversion by molar mass, not a printed value.

Assays:
MRSA KS89 = experiment: MIC, broth microdilution, MRSA KS89; assay type: cell-based, Staphylococcus aureus; details: for MIC-fold improvement vs. vancomycin: MRSA KS8, ratio of MIC of vancomycin and MIC of analogue; for MIC: Staphylococcus aureus MRSA KS8, read-out: MIC
Procedure, shortened: (§1)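 Read-out: lowest concentration inhibiting growth in broth microdilution, CLSI method. Water and broth-only wells acted as controls; in one case 10 μM vancomycin (final) was present with the compound.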

MRSA KS2 = experiment: MIC, broth microdilution, MRSA KS2; assay type: cell-based, Staphylococcus aureus; details: for MIC-fold improvement vs. vancomycin: MRSA KS2, ratio of MIC of vancomycin and MIC of analogue; for MIC: Staphylococcus aureus MRSA KS2, read-out: MIC
Procedure, shortened: as §1

E. faecalis VRE 37 = experiment: MIC, broth microdilution, vancomycin-resistant E. faecalis VRE 37 (VanA); assay type: cell-based, Enterococcus faecalis; details: for MIC: Enterococcus faecalis VRE 37 (vancomycin-resistant), read-out: MIC; for MIC-fold improvement vs. vancomycin: VRE 37, ratio of MIC of vancomycin and MIC of analogue
Procedure, shortened: as §1

E. faecalis VRE 6 = experiment: MIC, broth microdilution, vancomycin-resistant E. faecalis VRE 6 (VanA); assay type: cell-based, Enterococcus faecalis; details: for MIC: Enterococcus faecalis VRE 6 (vancomycin-resistant), read-out: MIC; for MIC-fold improvement vs. vancomycin: VRE 6, ratio of MIC of vancomycin and MIC of analogue
Procedure, shortened: as §1

[1] = test system: S. aureus VSSA (ATCC 6538); experiment: MIC, broth microdilution, vancomycin-sensitive S. aureus (VSSA/MSSA, ATCC 6538); assay type: cell-based, Staphylococcus aureus; details: for MIC: Staphylococcus aureus VSSA, read-out: MIC; for MIC-fold improvement vs. vancomycin: VSSA, ratio of MIC of vancomycin and MIC of analogue
Procedure, shortened: as §1

[2] = test system: L1210, CEM and HeLa cell lines; experiment: Cytostatic activity, average or summary over L1210, CEM and HeLa; assay type: cell-based; details: average of L1210, CEM and HeLa; read-out: Toxicity (IC50) Average
Procedure, shortened: (§2)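 Coulter counter cell counts after 37°C culture with compound; IC50 = concentration giving 50% growth inhibition vs negative control. Incubation: L1210 2 d, CEM 3 d, HeLa 4 d. Suspension density before mixing with an equal volume of dilution: 300,000–500,000 cells/mL.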

MRSA KS1 = experiment: MIC, broth microdilution, MRSA KS1; assay type: cell-based, Staphylococcus aureus; details: for MIC-fold improvement vs. vancomycin: MRSA KS1, ratio of MIC of vancomycin and MIC of analogue; for MIC: Staphylococcus aureus MRSA KS1, read-out: MIC
Procedure, shortened: as §1

S. aureus VRSA = experiment: MIC, broth microdilution, vancomycin-resistant S. aureus (VRSA); assay type: cell-based, Staphylococcus aureus; details: for MIC: Staphylococcus aureus VRSA, read-out: MIC; for MIC-fold improvement vs. vancomycin: VRSA, ratio of MIC of vancomycin and MIC of analogue
Procedure, shortened: as §1

[3] = test system: human cervix carcinoma (HeLa) cells; experiment: Cytostatic activity, HeLa cell proliferation; assay type: cell-based; details: mean ± SD of three experiments; highest concentration tested 250 µM; 4 days; read-out: Toxicity (IC50) HeLa
Procedure, shortened: as §2

E. faecalis VRE 29 = experiment: MIC, broth microdilution, vancomycin-resistant E. faecalis VRE 29 (VanA); assay type: cell-based, Enterococcus faecalis; details: for MIC: Enterococcus faecalis VRE 29 (vancomycin-resistant), read-out: MIC; for MIC-fold improvement vs. vancomycin: VRE 29, ratio of MIC of vancomycin and MIC of analogue
Procedure, shortened: as §1

[4] = test system: human T-lymphocyte (CEM) cells; experiment: Cytostatic activity, CEM cell proliferation; assay type: cell-based; details: mean ± SD of three experiments; highest concentration tested 250 µM; 3 days; read-out: Toxicity (IC50) CEM
Procedure, shortened: as §2

[5] = test system: Murine leukemia (L1210) cells; experiment: Cytostatic activity, L1210 cell proliferation; assay type: cell-based; details: mean ± SD of three experiments; highest concentration tested 250 µM; 2 days; read-out: Toxicity (IC50) L1210
Procedure, shortened: as §2

E. faecalis VSE 1 = experiment: MIC, broth microdilution, vancomycin-sensitive E. faecalis (VSE 1); assay type: cell-based, Enterococcus faecalis; details: for MIC: Enterococcus faecalis VSE 1 (vancomycin-sensitive), read-out: MIC; for MIC-fold improvement vs. vancomycin: VSE 1, ratio of MIC of vancomycin and MIC of analogue
Procedure, shortened: as §1

S. aureus VISA/HIP5827 = experiment: MIC, broth microdilution, vancomycin-intermediate S. aureus VISA HIP5827; assay type: cell-based, Staphylococcus aureus; details: for MIC: Staphylococcus aureus VISA/HIP5827, read-out: MIC; for MIC-fold improvement vs. vancomycin: VISA/HIP5827, ratio of MIC of vancomycin and MIC of analogue
Procedure, shortened: as §1

E. faecalis VRE 53 = experiment: MIC, broth microdilution, vancomycin-resistant E. faecalis VRE 53 (VanA); assay type: cell-based, Enterococcus faecalis; details: for MIC: Enterococcus faecalis VRE 53 (vancomycin-resistant), read-out: MIC; for MIC-fold improvement vs. vancomycin: VRE 53, ratio of MIC of vancomycin and MIC of analogue
Procedure, shortened: as §1

MRSA KS6 = experiment: MIC, broth microdilution, MRSA KS6; assay type: cell-based, Staphylococcus aureus; details: for MIC-fold improvement vs. vancomycin: MRSA KS6, ratio of MIC of vancomycin and MIC of analogue; for MIC: Staphylococcus aureus MRSA KS6, read-out: MIC
Procedure, shortened: as §1

| SMILES | MIC-fold improvement vs. vancomycin (MRSA KS89) | MIC (MRSA KS89) [µM] | MIC-fold improvement vs. vancomycin (MRSA KS2) | MIC (MRSA KS2) [µM] | MIC (E. faecalis VRE 37) [µM] | MIC-fold improvement vs. vancomycin (E. faecalis VRE 37) | MIC (E. faecalis VRE 6) [µM] | MIC-fold improvement vs. vancomycin (E. faecalis VRE 6) | MIC [1] [µM] | MIC-fold improvement vs. vancomycin [1] | IC50 [2] [µM] | MIC-fold improvement vs. vancomycin (MRSA KS1) | MIC (MRSA KS1) [µM] | MIC (S. aureus VRSA) [µM] | MIC-fold improvement vs. vancomycin (S. aureus VRSA) | IC50 [3] [µM] | MIC (E. faecalis VRE 29) [µM] | MIC-fold improvement vs. vancomycin (E. faecalis VRE 29) | IC50 [4] [µM] | IC50 [5] [µM] | further results |
| --- | --- | --- | --- | --- | --- | --- | --- | --- | --- | --- | --- | --- | --- | --- | --- | --- | --- | --- | --- | --- | --- |
| CN[C@H](CC(C)C)C(=O)N[C@H]1C(=O)N[C@@H](CC(N)=O)C(=O)N[C@H]2C(=O)N[C@H]3C(=O)N[C@H](C(=O)N[C@H](C(=O)NCC(=O)Nc4ccc(Cl)cn4)c4cc(O)cc(O)c4-c4cc3ccc4O)[C@H](O)c3ccc(c(Cl)c3)Oc3cc2cc(c3O[C@@H]2O[C@H](CO)[C@@H](O)[C@H](O)[C@H]2O[C@H]2C[C@](C)(N)[C@H](O)[C@H](C)O2)Oc2ccc(cc2Cl)[C@H]1O [Vanc-44] | 1 | 0.78 (≈ 1.26 µg/mL) | 1 | 0.78 (≈ 1.26 µg/mL) | 25 (≈ 40.4 µg/mL) | 16 | 12.5 (≈ 20.2 µg/mL) | 16 | 0.78 (≈ 1.26 µg/mL) | 1 | 203 | 1 | 0.78 (≈ 1.26 µg/mL) | 12.5 (≈ 20.2 µg/mL) | 8 | 108 ± 38 | 25 (≈ 40.4 µg/mL) | 16 | ≥ 250 | ≥ 250 | MIC (E. faecalis VSE 1): 0.78 µM (≈ 1.26 µg/mL); MIC-fold improvement vs. vancomycin (E. faecalis VSE 1): 2; MIC (S. aureus VISA/HIP5827): 1.56 µM (≈ 2.52 µg/mL); MIC-fold improvement vs. vancomycin (S. aureus VISA/HIP5827): 4; MIC (E. faecalis VRE 53): 50 µM (≈ 80.8 µg/mL); MIC-fold improvement vs. vancomycin (E. faecalis VRE 53): 8; MIC-fold improvement vs. vancomycin (MRSA KS6): 0.25; MIC (MRSA KS6): 3.13 µM (≈ 5.06 µg/mL) |
| CN[C@H](CC(C)C)C(=O)N[C@H]1C(=O)N[C@@H](CC(N)=O)C(=O)N[C@H]2C(=O)N[C@H]3C(=O)N[C@H](C(=O)N[C@H](C(=O)NCCNC(=O)/C=C/c4ccc(NS(=O)(=O)c5ccc(C(C)C)cc5)cc4)c4cc(O)cc(O)c4-c4cc3ccc4O)[C@H](O)c3ccc(c(Cl)c3)Oc3cc2cc(c3O[C@@H]2O[C@H](CO)[C@@H](O)[C@H](O)[C@H]2O[C@H]2C[C@](C)(N)[C@H](O)[C@H](C)O2)Oc2ccc(cc2Cl)[C@H]1O [Vanc-56] | 2 | 0.39 (≈ 0.709 µg/mL) | 4 | 0.20 (≈ 0.364 µg/mL) | 6.25 (≈ 11.4 µg/mL) | 64 | 3.13 (≈ 5.69 µg/mL) | 64 | 0.39 (≈ 0.709 µg/mL) | 2 | 201 | 1 | 0.78 (≈ 1.42 µg/mL) | 0.39 (≈ 0.709 µg/mL) | 256 | 104 ± 17 | 6.25 (≈ 11.4 µg/mL) | 64 | ≥ 250 | > 250 | MIC (E. faecalis VSE 1): 0.39 µM (≈ 0.709 µg/mL); MIC-fold improvement vs. vancomycin (E. faecalis VSE 1): 4; MIC (S. aureus VISA/HIP5827): 0.78 µM (≈ 1.42 µg/mL); MIC-fold improvement vs. vancomycin (S. aureus VISA/HIP5827): 8; MIC (E. faecalis VRE 53): 6.25 µM (≈ 11.4 µg/mL); MIC-fold improvement vs. vancomycin (E. faecalis VRE 53): 64; MIC-fold improvement vs. vancomycin (MRSA KS6): 4; MIC (MRSA KS6): 0.20 µM (≈ 0.364 µg/mL) |
